Active and inactive are the calls of the source.
Key:
[1] = molecular target: T1, Serine/threonine-protein kinase STK11 (Homo sapiens, UniProt Q15831)
T1 sequence (Q15831 whole entry): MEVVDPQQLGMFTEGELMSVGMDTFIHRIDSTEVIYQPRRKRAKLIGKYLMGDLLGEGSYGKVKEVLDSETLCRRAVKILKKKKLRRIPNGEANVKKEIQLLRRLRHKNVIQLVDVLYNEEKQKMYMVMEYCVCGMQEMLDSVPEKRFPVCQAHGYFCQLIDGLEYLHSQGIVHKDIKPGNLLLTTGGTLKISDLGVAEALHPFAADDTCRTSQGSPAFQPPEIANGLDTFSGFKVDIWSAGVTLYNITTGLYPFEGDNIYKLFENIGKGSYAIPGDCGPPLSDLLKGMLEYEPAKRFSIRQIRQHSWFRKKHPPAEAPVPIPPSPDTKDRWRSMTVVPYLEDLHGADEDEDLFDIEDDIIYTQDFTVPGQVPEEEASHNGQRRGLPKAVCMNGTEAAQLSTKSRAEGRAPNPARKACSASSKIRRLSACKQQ

[2] = molecular target: Mitogen-activated protein kinase 1 (Homo sapiens, UniProt P28482)
Chain of Mitogen-activated protein kinase 1 (P28482 whole entry): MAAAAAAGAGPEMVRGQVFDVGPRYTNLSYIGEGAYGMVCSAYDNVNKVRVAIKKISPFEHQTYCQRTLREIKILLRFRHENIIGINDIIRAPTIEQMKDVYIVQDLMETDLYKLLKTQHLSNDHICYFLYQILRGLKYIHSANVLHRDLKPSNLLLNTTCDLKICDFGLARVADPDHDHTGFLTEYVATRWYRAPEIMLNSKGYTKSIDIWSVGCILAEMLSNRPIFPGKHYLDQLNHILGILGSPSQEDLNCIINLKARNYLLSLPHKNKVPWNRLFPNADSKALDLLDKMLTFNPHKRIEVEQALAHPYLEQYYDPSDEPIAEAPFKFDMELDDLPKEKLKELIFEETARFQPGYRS

[3] = molecular target: T2, Serine/threonine-protein kinase TAO3 (Homo sapiens, UniProt Q9H2K8)
T2 sequence (Q9H2K8 whole entry): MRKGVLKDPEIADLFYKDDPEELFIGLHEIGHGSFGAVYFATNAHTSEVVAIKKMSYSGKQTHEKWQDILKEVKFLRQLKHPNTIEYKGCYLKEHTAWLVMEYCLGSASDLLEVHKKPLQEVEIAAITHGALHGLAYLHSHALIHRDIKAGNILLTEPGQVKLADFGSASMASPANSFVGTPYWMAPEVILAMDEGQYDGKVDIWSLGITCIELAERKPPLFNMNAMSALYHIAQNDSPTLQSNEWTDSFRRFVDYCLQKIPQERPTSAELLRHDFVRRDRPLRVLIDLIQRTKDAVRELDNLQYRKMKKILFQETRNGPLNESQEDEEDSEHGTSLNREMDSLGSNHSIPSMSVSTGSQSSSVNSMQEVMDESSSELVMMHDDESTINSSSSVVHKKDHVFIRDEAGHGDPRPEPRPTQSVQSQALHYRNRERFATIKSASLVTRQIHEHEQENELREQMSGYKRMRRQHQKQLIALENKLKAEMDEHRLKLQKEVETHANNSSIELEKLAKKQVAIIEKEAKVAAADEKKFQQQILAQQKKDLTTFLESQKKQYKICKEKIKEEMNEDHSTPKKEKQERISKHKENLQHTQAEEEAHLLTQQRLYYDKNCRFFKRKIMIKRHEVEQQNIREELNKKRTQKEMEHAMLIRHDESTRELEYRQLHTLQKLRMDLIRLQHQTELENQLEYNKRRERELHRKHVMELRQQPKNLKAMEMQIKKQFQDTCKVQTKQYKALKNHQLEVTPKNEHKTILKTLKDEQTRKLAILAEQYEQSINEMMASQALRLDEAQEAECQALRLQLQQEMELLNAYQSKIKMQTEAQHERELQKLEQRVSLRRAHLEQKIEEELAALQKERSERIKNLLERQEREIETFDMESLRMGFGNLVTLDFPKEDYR

[4] = molecular target: T3, STE20-related kinase adapter protein alpha (Homo sapiens, UniProt Q7RTN6)
T3 sequence (Q7RTN6 whole entry): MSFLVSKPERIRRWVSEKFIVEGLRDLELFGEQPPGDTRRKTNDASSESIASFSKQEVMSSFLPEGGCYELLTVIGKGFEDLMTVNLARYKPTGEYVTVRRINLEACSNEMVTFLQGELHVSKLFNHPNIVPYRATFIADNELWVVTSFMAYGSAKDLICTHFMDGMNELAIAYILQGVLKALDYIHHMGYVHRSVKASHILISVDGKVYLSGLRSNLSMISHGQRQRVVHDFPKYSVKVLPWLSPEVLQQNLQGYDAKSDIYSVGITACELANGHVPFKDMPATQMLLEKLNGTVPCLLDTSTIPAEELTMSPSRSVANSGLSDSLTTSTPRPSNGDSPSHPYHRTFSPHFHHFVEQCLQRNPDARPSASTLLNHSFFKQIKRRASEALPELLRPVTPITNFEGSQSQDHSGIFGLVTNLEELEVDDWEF

[5] = molecular target: T4, Structural maintenance of chromosomes protein 1A (Homo sapiens, UniProt Q14683)
T4 sequence (Q14683 whole entry): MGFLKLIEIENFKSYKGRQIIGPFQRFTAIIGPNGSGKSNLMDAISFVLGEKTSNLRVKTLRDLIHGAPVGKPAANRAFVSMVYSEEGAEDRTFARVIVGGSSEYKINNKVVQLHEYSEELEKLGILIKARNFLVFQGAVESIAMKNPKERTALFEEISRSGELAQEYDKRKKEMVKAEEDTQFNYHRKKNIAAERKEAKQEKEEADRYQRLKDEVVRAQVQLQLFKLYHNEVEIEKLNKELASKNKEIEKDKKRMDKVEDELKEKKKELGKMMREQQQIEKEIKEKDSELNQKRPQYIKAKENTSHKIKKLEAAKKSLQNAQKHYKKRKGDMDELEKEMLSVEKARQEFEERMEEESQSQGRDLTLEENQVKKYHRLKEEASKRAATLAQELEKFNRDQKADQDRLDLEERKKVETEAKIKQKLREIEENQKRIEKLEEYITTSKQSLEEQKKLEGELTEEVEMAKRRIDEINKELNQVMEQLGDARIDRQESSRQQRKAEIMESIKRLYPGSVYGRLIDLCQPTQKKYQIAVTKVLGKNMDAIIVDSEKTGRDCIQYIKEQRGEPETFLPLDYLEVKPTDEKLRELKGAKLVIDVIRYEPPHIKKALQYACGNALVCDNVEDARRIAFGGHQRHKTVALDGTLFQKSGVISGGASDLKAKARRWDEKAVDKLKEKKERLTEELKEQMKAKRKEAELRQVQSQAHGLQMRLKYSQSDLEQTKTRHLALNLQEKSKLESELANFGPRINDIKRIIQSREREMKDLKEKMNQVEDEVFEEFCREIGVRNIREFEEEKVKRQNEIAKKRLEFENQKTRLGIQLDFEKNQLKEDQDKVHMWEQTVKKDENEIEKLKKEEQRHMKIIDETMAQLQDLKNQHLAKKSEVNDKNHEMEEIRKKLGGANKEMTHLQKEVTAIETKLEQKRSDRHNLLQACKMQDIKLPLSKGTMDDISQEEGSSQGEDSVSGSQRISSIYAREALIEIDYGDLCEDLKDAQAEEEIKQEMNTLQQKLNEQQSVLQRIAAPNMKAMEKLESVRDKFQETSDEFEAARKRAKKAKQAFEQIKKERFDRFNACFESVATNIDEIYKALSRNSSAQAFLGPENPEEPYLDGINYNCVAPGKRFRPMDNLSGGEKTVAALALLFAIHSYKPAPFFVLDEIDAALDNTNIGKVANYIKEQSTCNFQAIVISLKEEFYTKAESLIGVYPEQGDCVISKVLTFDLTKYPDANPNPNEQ
Note: in the data inactive means no Kd found up to 30 µM.

Structure (SMILES)	Kd [1]	Kd [2]	Kd [3]	Kd [4]	Kd [5]
O=c1[nH]c([C@@H]2CCCN2)nc2c1oc1ccc(Cl)cc12	> 30 µM (inactive)	> 30 µM (inactive)	2.29 µM (active)	> 30 µM (inactive)	–
Cn1cc(-c2[nH]c3cc(NC(=O)[C@H](N)C4CCCCC4)cc4c3c2C=NNC4=O)cn1	4.37 µM (active)	> 30 µM (inactive)	> 30 µM (inactive)	> 30 µM (inactive)	> 30 µM (inactive)
CCN1CCN(Cc2ccc(Nc3ncc(F)c(-c4cc(F)c5nc(C)n(C(C)C)c5c4)n3)nc2)CC1 [ABEMACICLIB]	> 30 µM (inactive)	> 30 µM (inactive)	1.72 µM (active)	> 30 µM (inactive)	> 30 µM (inactive)
Cc1c(NC(=O)OC[C@@H]2COCCN2)cn2ncnc(Nc3ccc4c(cnn4Cc4cccc(F)c4)c3)c12 [AC-480]	–	> 30 µM (inactive)	> 30 µM (inactive)	> 30 µM (inactive)	–
C=CCn1c(=O)c2cnc(Nc3ccc(N4CCN(C)CC4)cc3)nc2n1-c1cccc(C(C)(C)O)n1 [ADAVOSERTIB]	> 30 µM (inactive)	> 30 µM (inactive)	> 30 µM (inactive)	> 30 µM (inactive)	> 30 µM (inactive)
CCc1cc2c(cc1N1CCC(N3CCOCC3)CC1)C(C)(C)c1[nH]c3cc(C#N)ccc3c1C2=O [ALECTINIB]	> 30 µM (inactive)	> 30 µM (inactive)	> 30 µM (inactive)	> 30 µM (inactive)	> 30 µM (inactive)
NC[C@@](O)(c1ccc(Cl)cc1)c1ccc(-c2cn[nH]c2)cc1 [AT-13148]	> 30 µM (inactive)	> 30 µM (inactive)	> 30 µM (inactive)	> 30 µM (inactive)	> 30 µM (inactive)
CCOc1ccn(-c2ccc(F)cc2)c(=O)c1C(=O)Nc1ccc(Oc2ccnc(N)c2Cl)c(F)c1 [BMS-777607]	> 30 µM (inactive)	> 30 µM (inactive)	> 30 µM (inactive)	–	> 30 µM (inactive)
O=S(=O)(c1cccc2cnccc12)N1CCCNCC1 [FASUDIL]	> 30 µM (inactive)	–	> 30 µM (inactive)	> 30 µM (inactive)	> 30 µM (inactive)
C[C@]1(O)C[C@@H](c2nc(-c3ccc4ccc(-c5ccccc5)nc4c3)c3c(N)nccn32)C1 [LINSITINIB]	> 30 µM (inactive)	–	> 30 µM (inactive)	> 30 µM (inactive)	> 30 µM (inactive)
N#CCNC(=O)c1ccc(-c2ccnc(Nc3ccc(N4CCOCC4)cc3)n2)cc1 [MOMELOTINIB]	> 30 µM (inactive)	> 30 µM (inactive)	–	–	> 30 µM (inactive)
CC1(C)CNc2cc(NC(=O)c3cccnc3NCc3ccncc3)ccc21 [MOTESANIB]	–	–	–	> 30 µM (inactive)	> 30 µM (inactive)
CC(C)CC(=O)Nc1[nH]nc2c1CN(C(=O)C1CCN(C)CC1)C2(C)C [PHA-793887]	–	–	–	> 30 µM (inactive)	> 30 µM (inactive)
COc1cc(F)c(F)c(Nc2ccc(I)cc2F)c1NS(=O)(=O)C1(C[C@H](O)CO)CC1 [REFAMETINIB]	> 30 µM (inactive)	> 30 µM (inactive)	> 30 µM (inactive)	> 30 µM (inactive)	–
Cn1cnc2c(F)c(Nc3ccc(Br)cc3Cl)c(C(=O)NOCCO)cc21 [SELUMETINIB]	–	–	–	> 30 µM (inactive)	0.365 µM
C=CCN(/C=C1/C(=O)O[C@H](COC)[C@@]2(C)C1=C(O)C(=O)C1=C2[C@H](OC(C)=O)C[C@]2(C)C(=O)CC[C@@H]12)CC=C [SONOLISIB]	> 30 µM (inactive)	> 30 µM (inactive)	> 30 µM (inactive)	> 30 µM (inactive)	–

Results, then the compound that gave them:

Kd [1]	Kd [2]	Kd [3]	Kd [4]	Kd [5]	Structure (SMILES)
–	–	–	> 30 µM (inactive)	–	CN(C)C/C=C/C(=O)Nc1cc2c(Nc3ccc(F)c(Cl)c3)ncnc2cc1O[C@H]1CCOC1 [AFATINIB]
> 30 µM (inactive)	> 30 µM (inactive)	> 30 µM (inactive)	> 30 µM (inactive)	> 30 µM (inactive)	COc1ccc2c(OCc3nnc4ccc(-c5ccccc5)nn34)ccnc2c1 [AMG-208]
> 30 µM (inactive)	> 30 µM (inactive)	> 30 µM (inactive)	> 30 µM (inactive)	> 30 µM (inactive)	S=C(NCc1ccc2c(c1)OCO2)N1CCN(c2ncnc3c2oc2ccccc23)CC1 [AMUVATINIB]
–	> 30 µM (inactive)	> 30 µM (inactive)	> 30 µM (inactive)	> 30 µM (inactive)	COc1ccc(-c2ccc3ncc4c(c3c2)n(-c2ccc(N3CCNCC3)c(C(F)(F)F)c2)c(=O)n4C)cn1 [BGT-226 FREE BASE]
–	–	–	> 30 µM (inactive)	> 30 µM (inactive)	C[C@@]1(C(=O)Nc2ccc(F)nc2)CCCN1c1nc(Nc2cc(C3CC3)n[nH]2)c2cccn2n1 [BMS-754807]
> 30 µM (inactive)	> 30 µM (inactive)	> 30 µM (inactive)	> 30 µM (inactive)	–	c1cc(OCCN2CCCCC2)cc(-c2n[nH]c3ccc(-c4nc[nH]n4)cc23)c1 [CC-401]
–	–	–	> 30 µM (inactive)	> 30 µM (inactive)	COc1cc2c(Oc3ccc4[nH]c(C)cc4c3F)ncnc2cc1OCCCN1CCCC1 [CEDIRANIB]
> 30 µM (inactive)	> 30 µM (inactive)	> 30 µM (inactive)	> 30 µM (inactive)	–	COc1cc2ncnc(Nc3ccc(F)c(Cl)c3)c2cc1NC(=O)/C=C/CN1CCCCC1 [DACOMITINIB ANHYDROUS]
> 30 µM (inactive)	–	> 30 µM (inactive)	> 30 µM (inactive)	> 30 µM (inactive)	O=S(=O)(c1cccc2c(O)nccc12)N1CCCNCC1 [HYDROXYFASUDIL]
–	–	–	> 30 µM (inactive)	–	COc1cc2c(N3CCN(C(=O)Nc4ccc(OC(C)C)cc4)CC3)ncnc2cc1OCCCN1CCCCC1 [TANDUTINIB]
